In PMC8966664 (Frontiers in Pharmacology, 2022):

Columns and labels:
Assay type in all cases: in vivo, Sprague Dawley rats
[1] = system: pyrrole-protein adducts; experiment: Toxicokinetic study: plasma kinetic profile of pyrrole-protein adducts; conditions: rats; GA 50 mg/kg + RTS 30 mg/kg vs RTS group
Procedure: For the toxicokinetic study, jugular vein cannulation was performed on rats on the day before drug administration. The right jugular vein was cannulated with a polyethylene tube (0.4 mm i.d. × 0.8 mm o.d., SIMS Portex, United Kingdom) for blood sampling. The rats were maintained in individual metabolic cages and fasted overnight with free access to water. […] Saline (0.2 ml) containing 25 units of heparin/mL was injected after each blood sampling for compensation of blood withdrawal. The blood samples were then centrifuged at 3,000 x g for 30 min, and plasma samples were harvested and stored at −20°C until use.
The pyrrole-protein adducts were measured according to our previously developed method ([Lin et al., 2011]; [Ruan et al., 2014]). Briefly, 50 mg liver or 100 µL serum/plasma was mixed with acetone and centrifuged at 900 x g for 10 min. […] After centrifuging at 20,000 x g for 30 min, the supernatants were collected and analyzed by LC-MS/MS according to our previously developed methods ([Ma et al., 2019]; [He et al., 2021a]; [Ma et al., 2021]). […]
Data are expressed as mean ± SD. […] Toxicokinetic parameters were calculated by noncompartmental methods using WinNonlin version 4.0 (Pharsight, Mountain View, CA, United States). […] The inhibition constant (K i ) value of GA was determined by the secondary Lineweaver-Burk plots. […]

[2] = system: sinusoidal endothelial cells; experiment: Immunofluorescence of RECA-1 in liver sections; conditions: rats; EX or GA treated groups + RTS
Procedure: (§1) EX and GA were dissolved in distilled water at 37°C for oral administration with the dosage of EX and GA as 500 mg/kg and 50 mg/kg. […] RTS was given following the last dose of distilled water/GA/EX. Detailed dosage regimens are described in Supplementary Figure S2. All rats were sacrificed at 48 h after the last dosing. Serum and liver samples were collected and stored at −80°C until use.
The largest lobe of the rat liver was sliced, cold-embedded in Tissue-Tek OCT compound, and processed for immunohistochemistry according to the Abcam IHC frozen sections staining protocol. The tissue slices were incubated with rat endothelial cell antigen (RECA)-1 antibody and Alexa Fluor 488-conjugated goat anti-mouse IgG, and then stained with DAPI and observed under Olympus FluoViewTM FV1000 confocal microscope.

[3] = system: RTS-induced liver damage; experiment: Histological examination (H&E) and scoring of liver damage, modified DeLeve's system; design: key to Central vein endothelial damage / Sinusoidal hemorrhage / Sinusoidal dilation / Coagulative necrosis / Apoptotic bodies / Subendothelial fibrosis / Sinusoid fibrosis / Subendothelial hemorrhage: 0-absent; 1-mild; 2-moderate; 3-severe; conditions: rats
Procedure: as §1
The largest lobe of the liver was sliced, fixed in 10% buffered-neutral formalin for 24 h, and embedded in wax. Sections of 5 µm in thickness were subjected to hematoxylin and eosin staining before being examined. Liver injury (necrosis, endothelial cell damage, and hemorrhage) was evaluated with a LEICA DM5000B Microscope (Leica, Heidelberg, Germany).
Protective effects of EX and GA on RTS-induced hepatotoxicity were also evaluated by histopathological examination. […] The damage of sinusoidal endothelial cells was further measured by the immunofluorescence of RECA-1. […] The degrees of hemorrhage, sinusoidal dilation, and necrosis were assessed and scored (Table 2) according to a modified DeLeve’s system ([Deleve et al., 1999]) as summarized in Supplementary Table S3.

[4] = system: pyrrole-protein adducts; experiment: Formation of pyrrole-protein adducts in liver and serum/plasma of RTS-treated rats
Procedure: as §1
The pyrrole-protein adducts were measured according to our previously developed method ([Lin et al., 2011]; [Ruan et al., 2014]). Briefly, 50 mg liver or 100 µL serum/plasma was mixed with acetone and centrifuged at 900 x g for 10 min. The precipitated protein was treated with silver nitrate (20 mg/ml) in ethanol containing 5% trifluoroacetic acid to release pyrrole moiety from the pyrrole-protein adducts. After centrifugation, an aliquot of the supernatant was incubated with 4-dimethylaminobenzaldehyde (20 mg/ml) at 56°C for 10 min. The mixture was filtered and subjected to LC-MS/MS analysis. 7,9-diGS-DHP was used as a standard with a concentration ranging from 0.2 to 2000 nM and underwent the same preparation process to construct a calibration curve. […] After centrifuging at 20,000 x g for 30 min, the supernatants were collected and analyzed by LC-MS/MS according to our previously developed methods ([Ma et al., 2019]; [He et al., 2021a]; [Ma et al., 2021]).
The LC-MS/MS analysis was performed on an Agilent 6460 Triple Quadrupole LC/MS System using a Waters Acquity BEH C18 column (2.1 × 100 mm, […]). For the detection of pyrrole-protein adducts, the mobile phase of water containing 0.1% formic acid (A) and acetonitrile containing 0.1% formic acid (B) was used with a gradient elution as follows: 0–5 min, 35–95% B; 5.5–6 min, 95–35% B. The flow rate was 0.3 ml/min. The injection volume was 3 μL. […] The injection volume was 5 µL. The mass spectrometer was operated in multiple reactions monitoring for data acquisition.

[5] = multiple dose (EX 500 mg/kg/day or GA 50 mg/kg/day, 5 consecutive days) + RTS 40 mg/kg, 48 h after last dosing
[6] = single dose (EX 500 mg/kg or GA 50 mg/kg) + RTS 40 mg/kg, 48 h after last dosing
[7] = multiple treatment (EX 500 mg/kg or GA 50 mg/kg) + RTS
[8] = single treatment (EX 500 mg/kg or GA 50 mg/kg) + RTS

CC1(C)[C@@H](O)CC[C@]2(C)[C@H]3C(=O)C=C4[C@@H]5C[C@@](C)(C(=O)O)CC[C@]5(C)CC[C@@]4(C)[C@]3(C)CC[C@@H]12 [GA, 18β-glycyrrhetinic acid]
reduction of AUC0–1440min of pyrrole-protein adducts [1]: 16.2% | RTS-induced damage of sinusoids (RECA-1 immunofluorescence) [2]: significantly less | Apoptotic bodies ([3]; EX, GA or RTS alone): 0 | Central vein endothelial damage ([3]; EX, GA or RTS alone): 0 | Coagulative necrosis ([3]; EX, GA or RTS alone): 0 | Overall (sum of the scores from all individual parameters) ([3]; EX, GA or RTS alone): 0 | Sinusoid fibrosis ([3]; EX, GA or RTS alone): 0 | Sinusoidal dilation ([3]; EX, GA or RTS alone): 0 | Sinusoidal hemorrhage ([3]; EX, GA or RTS alone): 0 | Subendothelial fibrosis ([3]; EX, GA or RTS alone): 0 | Subendothelial hemorrhage ([3]; EX, GA or RTS alone): 0 | RTS-induced hemorrhage and necrosis ([3]; both single and multiple doses + RTS): significantly ameliorated | Apoptotic bodies [3, 5]: 0 | Central vein endothelial damage [3, 5]: 1 | Coagulative necrosis [3, 5]: 0 | Overall (sum of the scores from all individual parameters) [3, 5]: 2-5 | Sinusoid fibrosis [3, 5]: 0 | Sinusoidal dilation [3, 5]: 1-2 | Sinusoidal hemorrhage [3, 5]: 0-1 | Subendothelial fibrosis [3, 5]: 0 | Subendothelial hemorrhage [3, 5]: 0-1 | Apoptotic bodies [3, 6]: 0 | Central vein endothelial damage [3, 6]: 1 | Coagulative necrosis [3, 6]: 1 | Overall (sum of the scores from all individual parameters) [3, 6]: 6-7 | Sinusoid fibrosis [3, 6]: 0 | Sinusoidal dilation [3, 6]: 2 | Sinusoidal hemorrhage [3, 6]: 1 | Subendothelial fibrosis [3, 6]: 0 | Subendothelial hemorrhage [3, 6]: 1-2 | histopathological examination of liver ([3]; substance alone): No obvious liver damage | reduction of pyrrole-protein adducts in liver [4, 7]: 32.5% | reduction of pyrrole-protein adducts in plasma [4, 7]: 56.5% | reduction of pyrrole-protein adducts in liver [4, 8]: 30.3% | reduction of pyrrole-protein adducts in plasma [4, 8]: 50.8%
